Our source for the EC50 and Emax values is patent US8003660B2, “Modulators of muscarinic receptors” (Vertex Pharmaceuticals Incorporated, priority 2006, dated 2011).

Holding throughout (format): cell-based
One test addresses T1, M1 muscarinic receptor (Homo sapiens, UniProt P11229).
T1 construct: expressed in transfected cells; host or cells: CHO (M1-CHO)
T1 sequence (P11229 1-460): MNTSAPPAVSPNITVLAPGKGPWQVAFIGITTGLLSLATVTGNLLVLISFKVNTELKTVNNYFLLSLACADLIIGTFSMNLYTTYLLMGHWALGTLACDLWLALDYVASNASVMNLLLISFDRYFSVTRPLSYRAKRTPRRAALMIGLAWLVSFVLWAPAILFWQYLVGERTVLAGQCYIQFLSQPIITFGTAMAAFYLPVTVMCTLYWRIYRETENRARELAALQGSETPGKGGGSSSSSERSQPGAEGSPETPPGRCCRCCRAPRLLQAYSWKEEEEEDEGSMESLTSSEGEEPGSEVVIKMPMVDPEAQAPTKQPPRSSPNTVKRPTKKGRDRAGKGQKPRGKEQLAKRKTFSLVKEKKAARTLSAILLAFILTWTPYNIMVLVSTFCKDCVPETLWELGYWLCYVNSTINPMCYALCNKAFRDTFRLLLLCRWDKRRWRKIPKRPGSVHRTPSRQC
Kind of test: Functional mobilization of intracellular calcium (FLIPR) in CHO cells expressing M1. The note with it: for EC50: CHO cells expressing M1, FLIPR calcium; for Emax: CHO, 100% = maximum response obtained with the Carbachol control, read-out: M1 Efficacy. The method, boiled down: (§1)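 Recombinant CHO cells loaded with Fluo-3 AM or Calcium 3 dye in pH 7.4 buffer containing 1 mM probenecid, with 0.5% final DMSO. For agonism, compound is added directly. For inhibition, it is preincubated 15 min, or co-applied, before carbachol at EC80. FLIPR fluorescence (ex 488, em 540 nm) is recorded for 60 s.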
A general note: Calcium flux is commonly read through the fluorescence of an indicator in the cells.

In another test the target is T2, M2 muscarinic receptor (Homo sapiens, UniProt P08172).
T2 construct: expressed in transfected cells; host or cells: CHO (M2-CHO)
T2 sequence (P08172 1-466): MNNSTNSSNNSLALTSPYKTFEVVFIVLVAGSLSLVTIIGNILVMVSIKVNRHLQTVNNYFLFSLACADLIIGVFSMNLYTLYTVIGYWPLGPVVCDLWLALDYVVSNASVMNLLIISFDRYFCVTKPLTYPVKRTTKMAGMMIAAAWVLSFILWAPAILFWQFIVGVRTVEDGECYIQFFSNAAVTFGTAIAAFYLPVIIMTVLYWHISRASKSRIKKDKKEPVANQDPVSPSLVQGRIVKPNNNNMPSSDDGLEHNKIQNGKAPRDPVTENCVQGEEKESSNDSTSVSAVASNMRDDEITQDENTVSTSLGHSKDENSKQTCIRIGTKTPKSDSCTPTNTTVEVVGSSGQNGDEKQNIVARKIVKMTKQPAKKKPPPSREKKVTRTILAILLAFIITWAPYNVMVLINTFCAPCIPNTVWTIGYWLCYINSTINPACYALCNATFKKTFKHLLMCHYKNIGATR
Kind of test: Functional mobilization of intracellular calcium (FLIPR) in CHO cells expressing M2. The note with it: for EC50: CHO cells expressing M2, FLIPR calcium; for Emax: CHO, 100% = maximum response obtained with the Carbachol control, read-out: M2 Efficacy. The method, boiled down: as §1

Another test has as its target T3, M3 muscarinic receptor (Homo sapiens, UniProt P20309).
T3 construct: expressed in transfected cells; host or cells: CHO (M3-CHO)
Nature of the test: Functional mobilization of intracellular calcium (FLIPR) in CHO cells expressing M3. The settings on record: for EC50: CHO cells expressing M3, FLIPR calcium; for Emax: CHO, 100% = maximum response obtained with the Carbachol control, read-out: M3 Efficacy. The method, boiled down:
as §1

Another test concerns the target T4, M4 muscarinic receptor (Homo sapiens, UniProt P08173).
T4 construct: expressed in transfected cells; host or cells: CHO (M4-CHO)
T4 sequence (P08173 1-479): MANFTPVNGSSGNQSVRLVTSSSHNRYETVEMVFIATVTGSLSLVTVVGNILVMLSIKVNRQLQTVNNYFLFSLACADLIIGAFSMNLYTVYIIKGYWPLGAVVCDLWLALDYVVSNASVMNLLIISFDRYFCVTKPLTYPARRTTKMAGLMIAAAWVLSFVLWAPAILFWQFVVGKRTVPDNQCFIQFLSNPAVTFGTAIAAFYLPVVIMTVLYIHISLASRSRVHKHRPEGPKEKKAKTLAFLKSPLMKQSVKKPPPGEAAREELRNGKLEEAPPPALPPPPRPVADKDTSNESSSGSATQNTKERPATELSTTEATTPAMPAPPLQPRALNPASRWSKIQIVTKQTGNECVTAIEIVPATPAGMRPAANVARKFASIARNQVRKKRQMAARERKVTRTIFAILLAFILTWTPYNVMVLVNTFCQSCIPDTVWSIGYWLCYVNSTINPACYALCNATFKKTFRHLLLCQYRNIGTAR
Kind of test: Functional mobilization of intracellular calcium (FLIPR) in CHO cells expressing M4. The note with it: for EC50: CHO cells expressing M4, FLIPR calcium; for Emax: CHO, 100% = maximum response obtained with the Carbachol control, read-out: M4 Efficacy. The method, boiled down:
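Calcium flux is read on FLIPR over 60 sec at 488/540 nm in muscarinic-receptor CHO lines. Antagonist mode adds carbachol at EC80 after 15 min compound preincubation or with simultaneous co-application. Agonist mode adds compound alone. Cells carry Fluo-3 or Calcium 3 dye in probenecid-containing pH 7.4 buffer, 0.5% DMSO final.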

T3 sequence (P20309 whole entry): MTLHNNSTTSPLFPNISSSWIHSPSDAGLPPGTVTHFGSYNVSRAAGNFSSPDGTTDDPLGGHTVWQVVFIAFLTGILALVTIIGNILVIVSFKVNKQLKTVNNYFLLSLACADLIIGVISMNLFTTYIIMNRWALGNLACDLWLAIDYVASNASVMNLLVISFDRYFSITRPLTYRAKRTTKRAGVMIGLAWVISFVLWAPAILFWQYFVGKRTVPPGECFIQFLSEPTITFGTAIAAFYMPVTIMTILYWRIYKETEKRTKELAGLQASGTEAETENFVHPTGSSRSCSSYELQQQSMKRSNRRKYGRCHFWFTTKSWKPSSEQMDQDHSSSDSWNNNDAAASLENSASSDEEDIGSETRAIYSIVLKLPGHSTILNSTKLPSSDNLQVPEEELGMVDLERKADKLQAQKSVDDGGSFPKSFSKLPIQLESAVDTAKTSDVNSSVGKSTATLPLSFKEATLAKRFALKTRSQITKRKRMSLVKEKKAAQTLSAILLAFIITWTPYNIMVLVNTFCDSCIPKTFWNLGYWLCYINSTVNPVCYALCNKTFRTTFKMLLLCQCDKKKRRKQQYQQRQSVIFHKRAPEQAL

Take `CC(C)(C)CCN1CCC2(CCC(C#N)c3ccccc32)CC1` (stereo not shown) [compound 97]: the EC50 at M1 muscarinic receptor was less than 2000 nM; on M2 muscarinic receptor, less than 2 µM; at M3 muscarinic receptor, greater than 5 µM; on M4 muscarinic receptor, less than 2000 nM. For the same molecule, the Emax at M1 muscarinic receptor was 25 to 100%; on M2 muscarinic receptor, 25 to 100%; at M3 muscarinic receptor it was less than 25%; on M4 muscarinic receptor, 25 to 100%.

`Cn1cnc(C(=O)N[C@H]2CCC3(CCN(CCC(C)(C)C)CC3)c3ccccc32)c1` [compound 98]: the EC50 is less than 2000 nM at M1 muscarinic receptor, greater than 5 µM on M2 muscarinic receptor, greater than 5 µM on M3 muscarinic receptor and less than 2000 nM on M4 muscarinic receptor. Also, the Emax is 25 to 100% at M1 muscarinic receptor, less than 25% on M2 muscarinic receptor, less than 25% at M3 muscarinic receptor and 25 to 100% on M4 muscarinic receptor.

Regarding `CCOCC(=O)N[C@@H]1CCC2(CCN(CCC(C)(C)C)CC2)c2ccccc21` [compound 99], the EC50 at M1 muscarinic receptor was greater than 5000 nM; on M2 muscarinic receptor, greater than 5 µM; at M3 muscarinic receptor it was greater than 5 µM; at M4 muscarinic receptor, less than 2000 nM. Besides, the Emax on M1 muscarinic receptor is less than 25%; on M2 muscarinic receptor it was less than 25%; on M3 muscarinic receptor it was less than 25%; on M4 muscarinic receptor, 25 to 100%.

`CCN(C(=O)CCNC(C)=O)[C@@H]1CCC2(CCN(CCC(C)(C)C)CC2)c2ccccc21` [compound 100]: the EC50 on M1 muscarinic receptor is greater than 5000 nM; at M2 muscarinic receptor, greater than 5 µM; at M3 muscarinic receptor, greater than 5 µM; on M4 muscarinic receptor it was less than 2000 nM. Besides, the Emax was less than 25% at M1 muscarinic receptor, less than 25% at M2 muscarinic receptor, less than 25% at M3 muscarinic receptor and 25 to 100% at M4 muscarinic receptor.

On to `CCN(C(=O)c1cncn1C)[C@@H]1CCC2(CCN(CCC(C)(C)C)CC2)c2ccccc21` [compound 101], for which the EC50 was less than 2000 nM at M1 muscarinic receptor, greater than 5 µM at M2 muscarinic receptor, greater than 5 µM at M3 muscarinic receptor and 2000 to 5000 nM at M4 muscarinic receptor. Also, the Emax was 25 to 100% on M1 muscarinic receptor, less than 25% on M2 muscarinic receptor, less than 25% at M3 muscarinic receptor and 25 to 100% at M4 muscarinic receptor.

Take `CC(C)(C)CCN1CCC2(CC[C@H](N3C(=O)CCC3=O)c3ccccc32)CC1` [compound 102]: the EC50 was 2000 to 5000 nM on M1 muscarinic receptor, greater than 5 µM at M2 muscarinic receptor, greater than 5 µM on M3 muscarinic receptor and less than 2000 nM on M4 muscarinic receptor. The Emax on M1 muscarinic receptor is 25 to 100%; at M2 muscarinic receptor it was less than 25%; at M3 muscarinic receptor it was less than 25%; on M4 muscarinic receptor, 25 to 100%.

As for `CC(C)(C)CCN1CCC2(CC[C@H](NC(=O)C3CCC(=O)N3)c3ccc(F)cc32)CC1` (stereo partly shown) [compound 103], the EC50 on M1 muscarinic receptor is less than 2000 nM; on M2 muscarinic receptor, less than 2 µM; at M3 muscarinic receptor, greater than 5 µM; at M4 muscarinic receptor, less than 2000 nM. Moreover, the Emax is 25 to 100% at M1 muscarinic receptor, less than 25% on M2 muscarinic receptor, less than 25% at M3 muscarinic receptor and 25 to 100% at M4 muscarinic receptor.

On to `CC(=O)N[C@H]1CCC2(CCN(CC(C)C)CC2)c2ccccc21` [compound 104], for which the EC50 on M1 muscarinic receptor is 2000 to 5000 nM; at M2 muscarinic receptor, greater than 5 µM; on M3 muscarinic receptor, greater than 5 µM; at M4 muscarinic receptor, 2000 to 5000 nM. The Emax at M1 muscarinic receptor was 25 to 100%; on M2 muscarinic receptor, 25 to 100%; on M3 muscarinic receptor it was less than 25%; on M4 muscarinic receptor it was 25 to 100%.

For `COCCC(=O)N[C@@H]1CCC2(CCN(CCC(C)(C)C)CC2)c2ccccc21` [compound 105], the 50% effective concentration (EC50) at M1 muscarinic receptor is 2000 to 5000 nM; on M2 muscarinic receptor, greater than 5 µM; on M3 muscarinic receptor, greater than 5 µM; at M4 muscarinic receptor it was less than 2000 nM. The Emax at M1 muscarinic receptor was less than 25%; on M2 muscarinic receptor, less than 25%; at M3 muscarinic receptor it was less than 25%; on M4 muscarinic receptor, 25 to 100%.

Consider `C[C@@H](C(=O)N[C@H]1CCC2(CCN(CCC(C)(C)C)CC2)c2cc(F)ccc21)N1CCCC1=O` [compound 106], for which the EC50 is less than 2000 nM on M1 muscarinic receptor, less than 2 µM on M2 muscarinic receptor, greater than 5 µM on M3 muscarinic receptor and less than 2000 nM at M4 muscarinic receptor. The Emax was 25 to 100% at M1 muscarinic receptor, 25 to 100% on M2 muscarinic receptor, less than 25% on M3 muscarinic receptor and 25 to 100% on M4 muscarinic receptor.

Take `CC(=O)N1CCC[C@@H]1C(=O)N[C@@H]1CCC2(CCN(CCC(C)(C)C)CC2)c2ccccc21` [compound 107]: the EC50 on M1 muscarinic receptor was 2000 to 5000 nM; at M2 muscarinic receptor, 2 to 5 µM; on M3 muscarinic receptor, greater than 5 µM; on M4 muscarinic receptor, less than 2000 nM. The Emax on M1 muscarinic receptor is 25 to 100%; on M2 muscarinic receptor, less than 25%; at M3 muscarinic receptor it was less than 25%; on M4 muscarinic receptor, 25 to 100%.

For the molecule `CC(C)(C)CCN1CCC2(CC[C@H](NC(=O)c3cccnc3)c3ccccc32)CC1` [compound 108], the EC50 was less than 2000 nM on M1 muscarinic receptor, less than 2 µM at M2 muscarinic receptor, greater than 5 µM on M3 muscarinic receptor and less than 2000 nM on M4 muscarinic receptor. Also, the Emax on M1 muscarinic receptor was 25 to 100%; on M2 muscarinic receptor, less than 25%; at M3 muscarinic receptor, less than 25%; at M4 muscarinic receptor, 25 to 100%.

On to `C[C@H](C(=O)N[C@H]1CCC2(CCN(CCC(C)(C)C)CC2)c2ccccc21)N1CCCC1=O` [compound 109], for which the EC50 is less than 2000 nM on M1 muscarinic receptor, greater than 5 µM at M2 muscarinic receptor, greater than 5 µM on M3 muscarinic receptor and less than 2000 nM on M4 muscarinic receptor. In addition, the Emax on M1 muscarinic receptor is 25 to 100%; at M2 muscarinic receptor it was less than 25%; at M3 muscarinic receptor, less than 25%; at M4 muscarinic receptor it was 25 to 100%.

Take `CCN(C(=O)CCC(F)(F)F)[C@H]1CCC2(CCN(CCC(C)(C)C)CC2)c2ccccc21` [compound 110]: the EC50 on M1 muscarinic receptor is greater than 5000 nM; on M2 muscarinic receptor it was greater than 5 µM; on M3 muscarinic receptor it was greater than 5 µM; on M4 muscarinic receptor, less than 2000 nM. Also, the Emax on M1 muscarinic receptor was 25 to 100%; at M2 muscarinic receptor, less than 25%; on M3 muscarinic receptor, less than 25%; on M4 muscarinic receptor, 25 to 100%.

As to `CCN(C(=O)c1cccnc1)[C@@H]1CCC2(CCN(CCC(C)(C)C)CC2)c2ccccc21` [compound 111], the EC50 at M1 muscarinic receptor is greater than 5000 nM; at M2 muscarinic receptor it was greater than 5 µM; on M3 muscarinic receptor, greater than 5 µM; at M4 muscarinic receptor it was less than 2000 nM. Also, the Emax at M1 muscarinic receptor was less than 25%; on M2 muscarinic receptor, less than 25%; at M3 muscarinic receptor it was less than 25%; at M4 muscarinic receptor, 25 to 100%.

`C[C@H](C(=O)N[C@@H]1CCC2(CCN(CCC(C)(C)C)CC2)c2ccccc21)N1CCCCC1=O` [compound 113]: the EC50 at M1 muscarinic receptor is greater than 5000 nM; on M2 muscarinic receptor it was greater than 5 µM; at M3 muscarinic receptor it was greater than 5 µM; at M4 muscarinic receptor it was less than 2000 nM. Moreover, the Emax on M1 muscarinic receptor was less than 25%; on M2 muscarinic receptor, less than 25%; at M3 muscarinic receptor it was less than 25%; at M4 muscarinic receptor it was 25 to 100%.

As to `CCn1cc(C(=O)N[C@H]2CCC3(CCN(CCC(C)(C)C)CC3)c3ccccc32)cn1` [compound 115], the EC50 at M1 muscarinic receptor was less than 2000 nM; at M2 muscarinic receptor, less than 2 µM; on M3 muscarinic receptor, greater than 5 µM; at M4 muscarinic receptor it was less than 2000 nM. Further, the Emax is 25 to 100% at M1 muscarinic receptor, 25 to 100% at M2 muscarinic receptor, less than 25% at M3 muscarinic receptor and 25 to 100% on M4 muscarinic receptor.

The term EC50 denotes the concentration at which the effect is half-maximal.
